# Molecular target: T1, human OX2R (Homo sapiens, UniProt O43614)
# T1 construct: expressed in transfected cells; host or cells: CHO (Chinese hamster ovary) cells, line CHOOX2R, co-expressing NFAT-luciferase
# T1 sequence (O43614 1-444): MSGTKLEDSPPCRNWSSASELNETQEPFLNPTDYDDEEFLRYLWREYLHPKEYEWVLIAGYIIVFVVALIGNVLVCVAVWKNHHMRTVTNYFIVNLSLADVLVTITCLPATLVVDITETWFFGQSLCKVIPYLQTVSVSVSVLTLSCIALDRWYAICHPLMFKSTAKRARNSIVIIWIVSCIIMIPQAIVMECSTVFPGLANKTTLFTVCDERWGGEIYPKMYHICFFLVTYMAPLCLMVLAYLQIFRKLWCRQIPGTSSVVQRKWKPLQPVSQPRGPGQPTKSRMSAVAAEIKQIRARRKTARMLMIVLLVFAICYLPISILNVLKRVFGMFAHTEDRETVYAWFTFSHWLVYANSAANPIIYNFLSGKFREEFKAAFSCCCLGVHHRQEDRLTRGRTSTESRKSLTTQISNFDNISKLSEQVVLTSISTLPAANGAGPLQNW
# Experiment: Agonist activity against OX2R: intracellular calcium (Fura-2AM, FDSS7000) in CHOOX2R cells
# Format: cell-based
# Conditions: 0.1 μM test compound; relative to orexin-A as full agonist (100%)
# Outline: (§1)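 CHO cells stably expressing human OX1R or OX2R (plus NFAT-luciferase) were loaded with 5 μM Fura-2AM for 60 min, then given compound at 10^−7 to 10^−5 M final (1% DMSO). Calcium change read as 340/380 nm excitation fluorescence ratio; response expressed as % of orexin-A maximal activity at 10, 1.0 and 0.1 μM.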
row,SMILES,Response (%) OX2R [%]
1,COc1ccc(-c2cccc(C(=O)N(C)C)c2)cc1S(=O)(=O)Nc1cccc(NC(=O)Nc2cccc(NC(=N)N)c2)c1 [Example 65],<5
2,COc1ccc(-c2cccc(C(=O)N(C)C)c2)cc1S(=O)(=O)Nc1cccc(NC(=O)NCc2ccccc2)c1 [Example 66],79
3,COc1ccc(-c2cccc(C(=O)N(C)C)c2)cc1S(=O)(=O)Nc1cccc(NC(=O)Nc2cccs2)c1 [Example 67],15
4,COc1ccc(-c2cccc(C(=O)N(C)C)c2)cc1S(=O)(=O)Nc1cccc(NC(=O)Nc2ccccn2)c1 [Example 68],10
5,COc1ccc(-c2cccc(C(=O)N(C)C)c2)cc1S(=O)(=O)Nc1cccc(NC(=O)Nc2cccnc2)c1 [Example 69],7
6,COc1ccc(-c2cccc(C(=O)N(C)C)c2)cc1S(=O)(=O)Nc1cccc(NC(=O)Nc2ccncc2)c1 [Example 70],9
7,COc1ccc(-c2cccc(C(=O)N(C)C)c2)cc1S(=O)(=O)Nc1cccc(NC(=O)Nc2ccc(N(C)C)nc2)c1 [Example 71],106
8,COc1ccc(-c2cccc(C(=O)N(C)C)c2)cc1S(=O)(=O)Nc1cccc(NC(=O)Nc2ccc(NC(=O)OC(C)(C)C)cc2)c1 [Example 72],7
9,COc1ccc(-c2cccc(C(=O)N(C)C)c2)cc1S(=O)(=O)Nc1cccc(NC(=O)OCc2ccccc2)c1 [Example 73],25
10,COc1ccc(-c2cccc(C(=O)N(C)C)c2)cc1S(=O)(=O)Nc1cccc(NC(=O)OC(C)(C)C)c1 [Example 74],15

# Same assay, conditions: 1.0 μM test compound; relative to orexin-A as full agonist (100%)
row,SMILES,Response (%) OX2R [%]
1,COc1ccc(-c2cccc(C(=O)N(C)C)c2)cc1S(=O)(=O)Nc1cccc(NC(=O)Nc2cccc(NC(=N)N)c2)c1 [Example 65],<5
2,COc1ccc(-c2cccc(C(=O)N(C)C)c2)cc1S(=O)(=O)Nc1cccc(NC(=O)NCc2ccccc2)c1 [Example 66],70
3,COc1ccc(-c2cccc(C(=O)N(C)C)c2)cc1S(=O)(=O)Nc1cccc(NC(=O)Nc2cccs2)c1 [Example 67],83
4,COc1ccc(-c2cccc(C(=O)N(C)C)c2)cc1S(=O)(=O)Nc1cccc(NC(=O)Nc2ccccn2)c1 [Example 68],10
5,COc1ccc(-c2cccc(C(=O)N(C)C)c2)cc1S(=O)(=O)Nc1cccc(NC(=O)Nc2cccnc2)c1 [Example 69],90
6,COc1ccc(-c2cccc(C(=O)N(C)C)c2)cc1S(=O)(=O)Nc1cccc(NC(=O)Nc2ccncc2)c1 [Example 70],9
7,COc1ccc(-c2cccc(C(=O)N(C)C)c2)cc1S(=O)(=O)Nc1cccc(NC(=O)Nc2ccc(N(C)C)nc2)c1 [Example 71],97
8,COc1ccc(-c2cccc(C(=O)N(C)C)c2)cc1S(=O)(=O)Nc1cccc(NC(=O)Nc2ccc(NC(=O)OC(C)(C)C)cc2)c1 [Example 72],59
9,COc1ccc(-c2cccc(C(=O)N(C)C)c2)cc1S(=O)(=O)Nc1cccc(NC(=O)OCc2ccccc2)c1 [Example 73],49
10,COc1ccc(-c2cccc(C(=O)N(C)C)c2)cc1S(=O)(=O)Nc1cccc(NC(=O)OC(C)(C)C)c1 [Example 74],13

# Same assay, conditions: 10 μM test compound; relative to orexin-A as full agonist (100%)
row,SMILES,Response (%) OX2R [%]
1,COc1ccc(-c2cccc(C(=O)N(C)C)c2)cc1S(=O)(=O)Nc1cccc(NC(=O)Nc2cccc(NC(=N)N)c2)c1 [Example 65],6
2,COc1ccc(-c2cccc(C(=O)N(C)C)c2)cc1S(=O)(=O)Nc1cccc(NC(=O)NCc2ccccc2)c1 [Example 66],60
3,COc1ccc(-c2cccc(C(=O)N(C)C)c2)cc1S(=O)(=O)Nc1cccc(NC(=O)Nc2cccs2)c1 [Example 67],103
4,COc1ccc(-c2cccc(C(=O)N(C)C)c2)cc1S(=O)(=O)Nc1cccc(NC(=O)Nc2ccccn2)c1 [Example 68],57
5,COc1ccc(-c2cccc(C(=O)N(C)C)c2)cc1S(=O)(=O)Nc1cccc(NC(=O)Nc2cccnc2)c1 [Example 69],127
6,COc1ccc(-c2cccc(C(=O)N(C)C)c2)cc1S(=O)(=O)Nc1cccc(NC(=O)Nc2ccncc2)c1 [Example 70],46
7,COc1ccc(-c2cccc(C(=O)N(C)C)c2)cc1S(=O)(=O)Nc1cccc(NC(=O)Nc2ccc(N(C)C)nc2)c1 [Example 71],113
8,COc1ccc(-c2cccc(C(=O)N(C)C)c2)cc1S(=O)(=O)Nc1cccc(NC(=O)Nc2ccc(NC(=O)OC(C)(C)C)cc2)c1 [Example 72],79
9,COc1ccc(-c2cccc(C(=O)N(C)C)c2)cc1S(=O)(=O)Nc1cccc(NC(=O)OCc2ccccc2)c1 [Example 73],11
10,COc1ccc(-c2cccc(C(=O)N(C)C)c2)cc1S(=O)(=O)Nc1cccc(NC(=O)OC(C)(C)C)c1 [Example 74],64

# Molecular target: T2, human OX1R (Homo sapiens, UniProt O43613)
# T2 construct: expressed in transfected cells; host or cells: CHO (Chinese hamster ovary) cells, line CHOOX1R, co-expressing NFAT-luciferase
# T2 sequence (O43613 1-425): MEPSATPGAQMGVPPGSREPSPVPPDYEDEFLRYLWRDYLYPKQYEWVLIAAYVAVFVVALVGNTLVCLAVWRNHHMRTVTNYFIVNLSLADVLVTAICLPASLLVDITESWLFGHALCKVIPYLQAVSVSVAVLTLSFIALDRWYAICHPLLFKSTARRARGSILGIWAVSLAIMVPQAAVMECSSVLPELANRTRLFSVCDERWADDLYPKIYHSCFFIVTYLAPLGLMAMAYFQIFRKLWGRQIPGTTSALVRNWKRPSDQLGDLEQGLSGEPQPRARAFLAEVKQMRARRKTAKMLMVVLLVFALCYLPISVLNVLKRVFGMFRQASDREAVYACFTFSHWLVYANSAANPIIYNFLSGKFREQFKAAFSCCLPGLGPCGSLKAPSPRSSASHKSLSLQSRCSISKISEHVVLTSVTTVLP
# Experiment: Agonist activity against OX1R: intracellular calcium (Fura-2AM, FDSS7000) in CHOOX1R cells
# Format: cell-based
# Conditions: 0.1 μM test compound; relative to orexin-A as full agonist (100%)
# Outline: as §1
row,SMILES,Response (%) OX1R [%]
1,COc1ccc(-c2cccc(C(=O)N(C)C)c2)cc1S(=O)(=O)Nc1cccc(NC(=O)Nc2cccc(NC(=N)N)c2)c1 [Example 65],<5
2,COc1ccc(-c2cccc(C(=O)N(C)C)c2)cc1S(=O)(=O)Nc1cccc(NC(=O)NCc2ccccc2)c1 [Example 66],6
3,COc1ccc(-c2cccc(C(=O)N(C)C)c2)cc1S(=O)(=O)Nc1cccc(NC(=O)Nc2cccs2)c1 [Example 67],6
4,COc1ccc(-c2cccc(C(=O)N(C)C)c2)cc1S(=O)(=O)Nc1cccc(NC(=O)Nc2ccccn2)c1 [Example 68],6
5,COc1ccc(-c2cccc(C(=O)N(C)C)c2)cc1S(=O)(=O)Nc1cccc(NC(=O)Nc2cccnc2)c1 [Example 69],6
6,COc1ccc(-c2cccc(C(=O)N(C)C)c2)cc1S(=O)(=O)Nc1cccc(NC(=O)Nc2ccncc2)c1 [Example 70],6
7,COc1ccc(-c2cccc(C(=O)N(C)C)c2)cc1S(=O)(=O)Nc1cccc(NC(=O)Nc2ccc(N(C)C)nc2)c1 [Example 71],6
8,COc1ccc(-c2cccc(C(=O)N(C)C)c2)cc1S(=O)(=O)Nc1cccc(NC(=O)Nc2ccc(NC(=O)OC(C)(C)C)cc2)c1 [Example 72],<5
9,COc1ccc(-c2cccc(C(=O)N(C)C)c2)cc1S(=O)(=O)Nc1cccc(NC(=O)OCc2ccccc2)c1 [Example 73],6
10,COc1ccc(-c2cccc(C(=O)N(C)C)c2)cc1S(=O)(=O)Nc1cccc(NC(=O)OC(C)(C)C)c1 [Example 74],6

# Same assay, conditions: 1.0 μM test compound; relative to orexin-A as full agonist (100%)
row,SMILES,Response (%) OX1R [%]
1,COc1ccc(-c2cccc(C(=O)N(C)C)c2)cc1S(=O)(=O)Nc1cccc(NC(=O)Nc2cccc(NC(=N)N)c2)c1 [Example 65],<5
2,COc1ccc(-c2cccc(C(=O)N(C)C)c2)cc1S(=O)(=O)Nc1cccc(NC(=O)NCc2ccccc2)c1 [Example 66],6
3,COc1ccc(-c2cccc(C(=O)N(C)C)c2)cc1S(=O)(=O)Nc1cccc(NC(=O)Nc2cccs2)c1 [Example 67],8
4,COc1ccc(-c2cccc(C(=O)N(C)C)c2)cc1S(=O)(=O)Nc1cccc(NC(=O)Nc2ccccn2)c1 [Example 68],6
5,COc1ccc(-c2cccc(C(=O)N(C)C)c2)cc1S(=O)(=O)Nc1cccc(NC(=O)Nc2cccnc2)c1 [Example 69],6
6,COc1ccc(-c2cccc(C(=O)N(C)C)c2)cc1S(=O)(=O)Nc1cccc(NC(=O)Nc2ccncc2)c1 [Example 70],6
7,COc1ccc(-c2cccc(C(=O)N(C)C)c2)cc1S(=O)(=O)Nc1cccc(NC(=O)Nc2ccc(N(C)C)nc2)c1 [Example 71],<5
8,COc1ccc(-c2cccc(C(=O)N(C)C)c2)cc1S(=O)(=O)Nc1cccc(NC(=O)Nc2ccc(NC(=O)OC(C)(C)C)cc2)c1 [Example 72],<5
9,COc1ccc(-c2cccc(C(=O)N(C)C)c2)cc1S(=O)(=O)Nc1cccc(NC(=O)OCc2ccccc2)c1 [Example 73],6
10,COc1ccc(-c2cccc(C(=O)N(C)C)c2)cc1S(=O)(=O)Nc1cccc(NC(=O)OC(C)(C)C)c1 [Example 74],7

# Same assay, conditions: 10 μM test compound; relative to orexin-A as full agonist (100%)
row,SMILES,Response (%) OX1R [%]
1,COc1ccc(-c2cccc(C(=O)N(C)C)c2)cc1S(=O)(=O)Nc1cccc(NC(=O)Nc2cccc(NC(=N)N)c2)c1 [Example 65],<5
2,COc1ccc(-c2cccc(C(=O)N(C)C)c2)cc1S(=O)(=O)Nc1cccc(NC(=O)NCc2ccccc2)c1 [Example 66],7
3,COc1ccc(-c2cccc(C(=O)N(C)C)c2)cc1S(=O)(=O)Nc1cccc(NC(=O)Nc2cccs2)c1 [Example 67],9
4,COc1ccc(-c2cccc(C(=O)N(C)C)c2)cc1S(=O)(=O)Nc1cccc(NC(=O)Nc2ccccn2)c1 [Example 68],6
5,COc1ccc(-c2cccc(C(=O)N(C)C)c2)cc1S(=O)(=O)Nc1cccc(NC(=O)Nc2cccnc2)c1 [Example 69],6
6,COc1ccc(-c2cccc(C(=O)N(C)C)c2)cc1S(=O)(=O)Nc1cccc(NC(=O)Nc2ccncc2)c1 [Example 70],6
7,COc1ccc(-c2cccc(C(=O)N(C)C)c2)cc1S(=O)(=O)Nc1cccc(NC(=O)Nc2ccc(N(C)C)nc2)c1 [Example 71],10
8,COc1ccc(-c2cccc(C(=O)N(C)C)c2)cc1S(=O)(=O)Nc1cccc(NC(=O)Nc2ccc(NC(=O)OC(C)(C)C)cc2)c1 [Example 72],<5
9,COc1ccc(-c2cccc(C(=O)N(C)C)c2)cc1S(=O)(=O)Nc1cccc(NC(=O)OCc2ccccc2)c1 [Example 73],<5
10,COc1ccc(-c2cccc(C(=O)N(C)C)c2)cc1S(=O)(=O)Nc1cccc(NC(=O)OC(C)(C)C)c1 [Example 74],7

# Source: patent publication US10351522B2, “Sulfonamide derivative and pharmaceutically acceptable acid addition salt thereof” (UNIVERSITY OF TSUKUBA, priority 2015, dated 2019)
